Legend:
[1] = Compatibility/stability of relacorilant with excipients at 40° C./75% RH and 60° C.; assay type: physicochemical
Experimental: The stability of relacorilant in a series of potential excipients was also examined for two weeks at 40° C. at 75% relative humidity, and at 60° C., including in formulations of Table I. The predominant degradation path was through formation of the aromatic decarbonylation of relacorilant with both propylene glycol monocaprylate and lauroyl polyoxyl-32 glyceride excipients. Relacorilant stability was good with both these excipients.

[2] = Stability of relacorilant to pH, moisture and light; assay type: physicochemical
Experimental: Relacorilant stability and compatibility with various excipients was tested and suitable excipients were identified. […] Lauryl polyoxyl-32 glycerides (Gelucire 44/14, available from Gattefosse USA, New Jersey) in place of the stearoyl polyoxyl-32 glycerides were then used. […] This formulation was tested for stability. Stability testing included testing of some formulations for up to one year.

With `Cn1cc(S(=O)(=O)N2CCC3=Cc4c(cnn4-c4ccc(F)cc4)C[C@]3(C(=O)c3cc(C(F)(F)F)ccn3)C2)cn1` [Relacorilant, (R)-(1-(4-fluorophenyl)-6-((1-methyl-1H-pyrazol-4-yl)sulfonyl)-4,4a,5,6,7,8-hexahydro-1H-pyrazolo[3,4-g]isoquinolin-4a-yl)(4-(trifluoromethyl)pyridin-2-yl)methanone] the “purity (% relacorilant of relacorilant plus relacorilant-derived impurities)” value ([1]; in lauroyl polyoxyl-32 glycerides, 40° C./75% RH, 1 week) was 97.64%, the “purity (% relacorilant of relacorilant plus relacorilant-derived impurities)” value ([1]; in lauroyl polyoxyl-32 glycerides, 40° C./75% RH, 2 week) was 97.55% and the “purity (% relacorilant of relacorilant plus relacorilant-derived impurities)” value ([1]; in lauroyl polyoxyl-32 glycerides, 60° C., 1 week) was 97.22%. For the same compound, the “purity (% relacorilant of relacorilant plus relacorilant-derived impurities)” value ([1]; in lauroyl polyoxyl-32 glycerides, 60° C., 2 week) was 96.77%, the “purity (% relacorilant of relacorilant plus relacorilant-derived impurities)” value ([1]; in lauroyl polyoxyl-32 glycerides, Control) was 98.09% and the “purity (% relacorilant of relacorilant plus relacorilant-derived impurities)” value ([1]; in lauroyl polyoxyl-32 glycerides, T0) was 98.13%. The “purity (% relacorilant of relacorilant plus relacorilant-derived impurities)” value ([1]; in propylene glycol monocaprylate, 40° C./75% RH, 1 week) was 98.00%, the “purity (% relacorilant of relacorilant plus relacorilant-derived impurities)” value ([1]; in propylene glycol monocaprylate, 40° C./75% RH, 2 week) was 97.84% and the “purity (% relacorilant of relacorilant plus relacorilant-derived impurities)” value ([1]; in propylene glycol monocaprylate, 60° C., 1 week) was 97.51%. For the same compound, the “purity (% relacorilant of relacorilant plus relacorilant-derived impurities)” value ([1]; in propylene glycol monocaprylate, 60° C., 2 week) was 96.65%, the “purity (% relacorilant of relacorilant plus relacorilant-derived impurities)” value ([1]; in propylene glycol monocaprylate, Control) was 98.03% and the “purity (% relacorilant of relacorilant plus relacorilant-derived impurities)” value ([1]; in propylene glycol monocaprylate, T0) was 98.09%. For the same compound, the “sensitivity to moisture and light” value [2] was “sensitive to both moisture and light”, the “stability in acidic aqueous solutions” value ([2]; acidic aqueous solutions) was “stable” and the “stability under basic conditions” value ([2]; basic conditions) was “sensitive to basic conditions”. The “stability over time in formulations having basic pH” value ([2]; basic pH, particularly pH greater than 8, versus neutral or acidic pH) was “significantly less stable” and the “stability in neutral solutions” value ([2]; neutral solutions at elevated temperatures) was “degrade over time”.
